From US9409952B2, “Peptide-compound cyclization method” (Chugai Seiyaku Kabushiki Kaisha, priority 2011, dated 2016)
Starred links: 1 amine or outer side, 2 acyl side, 3 side chain; linkers in the order of their positions; H or OH if unused. Positions of bridges follow the written chain, without caps; N, C: chain ends. Non-standard residues stand in square brackets, D forms with d. Residues, ends and D or L forms follow the SMILES beside them. *: point of attachment. NMeF = CN[C@@H](Cc1ccccc1)C(=O)O; NMeβAla = CN(CCC(=O)[*:2])[*:1]; NMeL = CN[C@@H](CC(C)C)C(=O)O; NMeV = CN[C@H](C(=O)O)C(C)C; NMeA = CN[C@@H](C)C(=O)O; Piperidide = C1CCN(*)CC1; dNMeA = CN[C@H](C)C(=O)O; Sar = CNCC(=O)O; tBu = CC(C)(C)*

Key:
[1] = Metabolic stability in human hepatic microsome; format: in vitro ADME; conditions: microsomes, pH 7.4; human hepatic microsome, NADPH(+); read-out: CL NADPH(+)
[2] = PAMPA (parallel artificial membrane permeability assay); format: in vitro ADME; conditions: PAMPA; membrane permeation rate (Pe); 50 mM MOPSO buffer pH 6.5 with 5.0% glycocholic acid, 37° C., 18 hours; read-out: iPAMPA Pe
Outline: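 Artificial membrane was 10% (w/v) egg lecithin plus 0.5% (w/v) cholesterol in dodecane on a PVDF filter. A 10 mM DMSO stock was added at 0.5% (v/v) to donor buffer (50 mM MOPSO, pH 6.5, 5.0% glycocholic acid). After 18 h at 37 °C, LC/MS or LC/UV gave donor and acceptor levels for Pe.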

Compound	microsomal CLint at 1 uM [1]	Papp at 18 hours, 50 µM [2]
CC(C)C[C@H]1C(=O)N[C@@H]([C@@H](C)O)C(=O)N(C)[C@@H](C)C(=O)N(C)[C@@H](Cc2ccccc2)C(=O)N(C)CC(=O)N[C@@H](C)C(=O)N(C)[C@@H](Cc2ccccc2)C(=O)N(C)[C@@H](CC(C)C)C(=O)N[C@H](C(=O)N2CCCCC2)CC(=O)N(C)[C@H](C)C(=O)N(C)[C@@H](C)C(=O)N1C [DP-419] ([dNMeA][NMeA][NMeL]T[NMeA][NMeF][Sar]A[NMeF][NMeL]D-Piperidide; lactam N-11)	17 µL/min/mg	6.7 ×10⁻⁶ cm/s
CC(C)C[C@@H]1NC(=O)CN(C)C(=O)[C@H](CC(C)C)NC(=O)[C@H](C)NC(=O)[C@H](CC(C)C)NC(=O)[C@H](CC(C)C)NC(=O)[C@H](C)N(C)C(=O)C[C@@H](C(=O)N2CCCCC2)NC(=O)[C@H]([C@@H](C)O)NC(=O)[C@H](Cc2ccccc2)NC(=O)[C@H](CC(C)C)NC1=O [DP-420] ([NMeA]LLAL[Sar]LLFTD-Piperidide; lactam N-11)	69 µL/min/mg	10 ×10⁻⁶ cm/s
CC(C)C[C@@H]1NC(=O)[C@H](C)NC(=O)[C@H]([C@@H](C)O)NC(=O)[C@H](C)N(C)C(=O)C[C@@H](C(=O)N2CCCCC2)NC(=O)[C@H](CC(C)C)N(C)C(=O)[C@H](CC(C)C)NC(=O)[C@H](C(C)C)N(C)C(=O)[C@H](CC(C)C)NC(=O)[C@H](Cc2ccccc2)NC(=O)CN(C)C1=O [DP-421] ([NMeA]TAL[Sar]FL[NMeV]L[NMeL]D-Piperidide; lactam N-11)	171 µL/min/mg	29 ×10⁻⁶ cm/s
CC(C)C[C@H]1C(=O)N[C@H](C(=O)N2CCCCC2)CC(=O)N(C)[C@@H](C)C(=O)N(C)[C@@H](Cc2ccccc2)C(=O)N(C)[C@@H](C)C(=O)N[C@@H]([C@@H](C)O)C(=O)N(C)[C@@H](C)C(=O)N[C@@H](Cc2ccccc2)C(=O)N(C)[C@@H](C)C(=O)N[C@@H](C)C(=O)N(C)[C@@H](C)C(=O)N1C [DP-422] ([NMeA][NMeF][NMeA]T[NMeA]F[NMeA]A[NMeA][NMeL]D-Piperidide; lactam N-11)	26 µL/min/mg	3.8 ×10⁻⁶ cm/s
CC[C@H](C)[C@@H]1NC(=O)[C@H](Cc2ccccc2)NC(=O)[C@H]([C@@H](C)O)NC(=O)CCN(C)C(=O)C[C@@H](C(=O)N2CCCCC2)NC(=O)[C@H](Cc2ccccc2)NC(=O)[C@H](Cc2ccccc2)NC(=O)CNC(=O)[C@H](CC(C)C)N(C)C(=O)[C@H](CC(C)C)NC1=O [DP-423] ([NMeβAla]TFIL[NMeL]GFFD-Piperidide; lactam N-10)	110 µL/min/mg	15 ×10⁻⁶ cm/s
CC[C@H](C)[C@@H]1NC(=O)[C@H](Cc2ccccc2)NC(=O)[C@H]([C@@H](C)O)NC(=O)[C@H](CC(C)C)NC(=O)CCN(C)C(=O)C[C@@H](C(=O)N2CCCCC2)NC(=O)[C@H](CC(C)C)NC(=O)[C@H](Cc2ccccc2)N(C)C(=O)[C@H](Cc2ccccc2)NC(=O)[C@H](CC(C)C)NC1=O [DP-424] ([NMeβAla]LTFILF[NMeF]LD-Piperidide; lactam N-10)	135 µL/min/mg	46 ×10⁻⁶ cm/s
CC[C@H](C)[C@@H]1NC(=O)CCN(C)C(=O)C[C@@H](C(=O)N2CCCCC2)NC(=O)[C@H](Cc2ccccc2)N(C)C(=O)[C@H](CC(C)C)NC(=O)[C@H](CC(C)C)N(C)C(=O)[C@H](CC(C)C)NC(=O)[C@H]([C@@H](C)O)NC(=O)[C@H](Cc2ccccc2)NC(=O)[C@H](C(C)C)N(C)C1=O [DP-425] ([NMeβAla]I[NMeV]FTL[NMeL]L[NMeF]D-Piperidide; lactam N-10)	150 µL/min/mg	27 ×10⁻⁶ cm/s
CC(C)C[C@H]1C(=O)N[C@@H](Cc2ccccc2)C(=O)N[C@@H](COC(C)(C)C)C(=O)N(C)[C@@H](CC(C)C)C(=O)N(C)[C@@H](CC(C)C)C(=O)N[C@@H]([C@@H](C)O)C(=O)N[C@H](C(=O)N2CCCCC2)CC(=O)N(C)CCC(=O)N(C)[C@@H](Cc2ccccc2)C(=O)NCC(=O)N1C [DP-426] ([NMeβAla][NMeF]G[NMeL]FS(tBu)[NMeL][NMeL]TD-Piperidide; lactam N-10)	546 µL/min/mg	36 ×10⁻⁶ cm/s
CC[C@H](C)[C@@H]1NC(=O)[C@H](Cc2ccccc2)N(C)C(=O)[C@H](CC(C)C)N(C)C(=O)[C@H](Cc2ccccc2)NC(=O)[C@H](C)N(C)C(=O)[C@H]([C@@H](C)O)NC(=O)CCN(C)C(=O)C[C@@H](C(=O)N2CCCCC2)NC(=O)[C@H](CC(C)C)N(C)C(=O)[C@H](C(C)C)N(C)C1=O [DP-427] ([NMeβAla]T[NMeA]F[NMeL][NMeF]I[NMeV][NMeL]D-Piperidide; lactam N-10)	141 µL/min/mg	37 ×10⁻⁶ cm/s
CC(C)C[C@H]1C(=O)N(C)[C@@H](CC(C)C)C(=O)N(C)[C@@H](CC(C)C)C(=O)N[C@H](C(=O)N2CCCCC2)CC(=O)N(C)CCC(=O)N(C)[C@@H](Cc2ccccc2)C(=O)N(C)[C@@H](CC(C)C)C(=O)N[C@@H]([C@@H](C)O)C(=O)N(C)[C@@H](C)C(=O)NCC(=O)N1C [DP-428] ([NMeβAla][NMeF][NMeL]T[NMeA]G[NMeL][NMeL][NMeL]D-Piperidide; lactam N-10)	77 µL/min/mg	26 ×10⁻⁶ cm/s
CC[C@H](C)[C@@H]1NC(=O)[C@H](CC(C)C)N(C)C(=O)[C@H](CC(C)C)N(C)C(=O)CCN(C)C(=O)C[C@@H](C(=O)N2CCCCC2)NC(=O)[C@H](CC(C)C)N(C)C(=O)[C@H](CC(C)C)N(C)C(=O)[C@H](Cc2ccccc2)N(C)C(=O)[C@H]([C@@H](C)O)NC(=O)[C@H](Cc2ccccc2)N(C)C1=O [DP-429] ([NMeβAla][NMeL][NMeL]I[NMeF]T[NMeF][NMeL][NMeL]D-Piperidide; lactam N-10)	115 µL/min/mg	15 ×10⁻⁶ cm/s
CC[C@H](C)[C@@H]1NC(=O)[C@H](CC(C)C)NC(=O)[C@H](Cc2ccccc2)NC(=O)CN(C)C(=O)[C@H](CC(C)C)NC(=O)[C@H](Cc2ccccc2)NC(=O)[C@@H](C)NC(=O)C[C@@H](C(=O)N2CCCCC2)NC(=O)[C@H]([C@@H](C)O)NC(=O)[C@H](Cc2ccccc2)NC1=O [DP-430] ([dA]FL[Sar]FLIFTD-Piperidide; lactam N-10)	96 µL/min/mg	32 ×10⁻⁶ cm/s
CC[C@H](C)[C@@H]1NC(=O)[C@H](CC(C)C)N(C)C(=O)[C@H](CC(C)C)NC(=O)[C@H](Cc2ccccc2)NC(=O)[C@H]([C@@H](C)O)NC(=O)[C@H](Cc2ccccc2)NC(=O)[C@@H](C)N(C)C(=O)C[C@@H](C(=O)N2CCCCC2)NC(=O)CNC(=O)[C@H](Cc2ccccc2)NC1=O [DP-431] ([dNMeA]FTFL[NMeL]IFGD-Piperidide; lactam N-10)	239 µL/min/mg	34 ×10⁻⁶ cm/s
CC[C@H](C)[C@@H]1NC(=O)[C@H](CC(C)C)N(C)C(=O)[C@H](Cc2ccccc2)NC(=O)[C@H]([C@@H](C)O)NC(=O)[C@H](CC(C)C)N(C)C(=O)[C@H](C(C)C)N(C)C(=O)[C@@H](C)N(C)C(=O)C[C@@H](C(=O)N2CCCCC2)NC(=O)[C@H](CC(C)C)NC(=O)[C@H](Cc2ccccc2)N(C)C1=O [DP-432] ([dNMeA][NMeV][NMeL]TF[NMeL]I[NMeF]LD-Piperidide; lactam N-10)	396 µL/min/mg	26 ×10⁻⁶ cm/s
CC[C@H](C)[C@@H]1NC(=O)CN(C)C(=O)[C@H]([C@@H](C)O)NC(=O)[C@H](C(C)C)N(C)C(=O)[C@@H](C)N(C)C(=O)C[C@@H](C(=O)N2CCCCC2)NC(=O)[C@H](CC(C)C)NC(=O)[C@H](Cc2ccccc2)N(C)C(=O)[C@H](CC(C)C)N(C)C(=O)[C@H](C)N(C)C1=O [DP-433] ([dNMeA][NMeV]T[Sar]I[NMeA][NMeL][NMeF]LD-Piperidide; lactam N-10)	35 µL/min/mg	45 ×10⁻⁶ cm/s
CC[C@H](C)[C@@H]1NC(=O)[C@H](Cc2ccccc2)N(C)C(=O)[C@H](CC(C)C)N(C)C(=O)[C@H](Cc2ccccc2)NC(=O)[C@H](C)N(C)C(=O)[C@H]([C@@H](C)O)NC(=O)[C@@H](C)N(C)C(=O)C[C@@H](C(=O)N2CCCCC2)NC(=O)[C@H](CC(C)C)N(C)C(=O)[C@H](C(C)C)N(C)C1=O [DP-434] ([dNMeA]T[NMeA]F[NMeL][NMeF]I[NMeV][NMeL]D-Piperidide; lactam N-10)	166 µL/min/mg	38 ×10⁻⁶ cm/s
CC(C)C[C@H]1C(=O)N(C)[C@@H](C)C(=O)N(C)[C@@H](CC(C)C)C(=O)N[C@H](C(=O)N2CCCCC2)CC(=O)N(C)[C@H](C)C(=O)N(C)[C@@H](Cc2ccccc2)C(=O)N[C@@H]([C@@H](C)O)C(=O)N(C)[C@@H](C)C(=O)N(C)[C@@H](CC(C)C)C(=O)NCC(=O)N1C [DP-435] ([dNMeA][NMeF]T[NMeA][NMeL]G[NMeL][NMeA][NMeL]D-Piperidide; lactam N-10)	41 µL/min/mg	16 ×10⁻⁶ cm/s
CC[C@H](C)[C@@H]1NC(=O)[C@H](Cc2ccccc2)NC(=O)[C@H](CC(C)C)NC(=O)CNC(=O)[C@H]([C@@H](C)O)NC(=O)[C@H](Cc2ccccc2)NC(=O)[C@H](C)N(C)C(=O)C[C@@H](C(=O)N2CCCCC2)NC(=O)[C@H](Cc2ccccc2)NC(=O)[C@H](CC(C)C)N(C)C1=O [DP-436] ([NMeA]FTGLFI[NMeL]FD-Piperidide; lactam N-10)	142 µL/min/mg	45 ×10⁻⁶ cm/s
CC(C)C[C@@H]1NC(=O)[C@H](Cc2ccccc2)N(C)C(=O)CNC(=O)[C@H]([C@@H](C)O)NC(=O)[C@H](CC(C)C)N(C)C(=O)[C@H](COC(C)(C)C)NC(=O)[C@H](C)N(C)C(=O)C[C@@H](C(=O)N2CCCCC2)NC(=O)[C@H](Cc2ccccc2)NC(=O)[C@H](CC(C)C)N(C)C1=O [DP-437] ([NMeA]S(tBu)[NMeL]TG[NMeF]L[NMeL]FD-Piperidide; lactam N-10)	265 µL/min/mg	37 ×10⁻⁶ cm/s
